Results published in ChEMBL document CHEMBL1201862, “PubChem BioAssay data set” (2004).
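Tested at 5 concentrations; 48 h exposure; 96-well plates; endpoints linearly interpolated, else capped at highest concentration. The concentration for 50% growth inhibition is given as GI50.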 Calls of active or inactive are those of the source. Cut-off read from the data, not from the text of the source: active = GI50 up to about 1.1 µM and inactive = higher.

Columns and labels:
Assay in all cases: growth of human tumour cells (NCI), 48 h
HL-60 = tested on: HL-60
SK-MEL-5 = tested on: SK-MEL-5
SF-539 = tested on: SF-539
NCI-H460 = tested on: NCI-H460
TK-10 = tested on: TK-10
SNB-19 = tested on: SNB-19
OVCAR-5 = tested on: OVCAR-5
NCI-H23 = tested on: NCI-H23
COLO 205 = tested on: COLO 205
HCC 2998 = tested on: HCC 2998
LOX IMVI = tested on: LOX IMVI
ACHN = tested on: ACHN
SF-295 = tested on: SF-295
HT-29 = tested on: HT-29
UACC-257 = tested on: UACC-257
SW-620 = tested on: SW-620
U-251 = tested on: U-251
RPMI-8226 = tested on: RPMI-8226
HOP-62 = tested on: HOP-62
MDA-MB-231 = tested on: MDA-MB-231

Structure (SMILES)	GI50 (HL-60)	GI50 (SK-MEL-5)	GI50 (SF-539)	GI50 (NCI-H460)	GI50 (TK-10)	GI50 (SNB-19)	GI50 (OVCAR-5)	GI50 (NCI-H23)	GI50 (COLO 205)	GI50 (HCC 2998)	GI50 (LOX IMVI)	GI50 (ACHN)	GI50 (SF-295)	GI50 (HT-29)	GI50 (UACC-257)	GI50 (SW-620)	GI50 (U-251)	GI50 (RPMI-8226)	GI50 (HOP-62)	GI50 (MDA-MB-231)
CC1NOC(=O)C1/N=N/c1ccccc1Br (stereo unspecified)	18.9 µM (inactive)	15.3 µM (inactive)	22.3 µM (inactive)	21.7 µM (inactive)	24.5 µM (inactive)	37.4 µM (inactive)	40.7 µM (inactive)	22.6 µM (inactive)	20.6 µM (inactive)	41.2 µM (inactive)	23.9 µM (inactive)	35.3 µM (inactive)	40.7 µM (inactive)	39.6 µM (inactive)	24 µM (inactive)	13.8 µM (inactive)	22.4 µM (inactive)	28.8 µM (inactive)	43.9 µM (inactive)	–
O=[N+]([O-])c1ccc(NS(=O)(=O)C(F)(F)F)cc1	> 100 µM (inactive)	> 100 µM (inactive)	> 100 µM (inactive)	> 100 µM (inactive)	> 100 µM (inactive)	> 100 µM (inactive)	> 100 µM (inactive)	> 100 µM (inactive)	> 100 µM (inactive)	–	> 100 µM (inactive)	> 100 µM (inactive)	> 100 µM (inactive)	> 100 µM (inactive)	> 100 µM (inactive)	> 100 µM (inactive)	> 100 µM (inactive)	–	> 100 µM (inactive)	> 100 µM (inactive)
N#CC1C(=O)NC(=O)C(C#N)C1c1ccc(Cl)c(Cl)c1 (stereo unspecified)	35.4 µM (inactive)	20.9 µM (inactive)	19.4 µM (inactive)	30.1 µM (inactive)	35.3 µM (inactive)	91.2 µM (inactive)	23.4 µM (inactive)	21.4 µM (inactive)	> 100 µM (inactive)	–	17.1 µM (inactive)	22.4 µM (inactive)	40.3 µM (inactive)	16.7 µM (inactive)	35.9 µM (inactive)	16.7 µM (inactive)	23.7 µM (inactive)	–	20.4 µM (inactive)	< 0.01 µM (active)
[O-][S+]1c2ccc(Cl)cc2CC(SSC2Cc3cc(Cl)ccc3[S+]([O-])c3ccccc32)c2ccccc21 (stereo unspecified)	> 100 µM (inactive)	> 100 µM (inactive)	> 100 µM (inactive)	> 100 µM (inactive)	> 100 µM (inactive)	> 100 µM (inactive)	> 100 µM (inactive)	> 100 µM (inactive)	> 100 µM (inactive)	> 100 µM (inactive)	> 100 µM (inactive)	> 100 µM (inactive)	> 100 µM (inactive)	> 100 µM (inactive)	> 100 µM (inactive)	> 100 µM (inactive)	> 100 µM (inactive)	> 100 µM (inactive)	> 100 µM (inactive)	–
IC[P+]1(c2ccccc2)CCCC1	45.1 µM (inactive)	19.1 µM (inactive)	45.3 µM (inactive)	31.9 µM (inactive)	47.3 µM (inactive)	59.6 µM (inactive)	> 100 µM (inactive)	39.4 µM (inactive)	14 µM (inactive)	> 100 µM (inactive)	26.7 µM (inactive)	82.4 µM (inactive)	40.1 µM (inactive)	37.3 µM (inactive)	52.4 µM (inactive)	> 100 µM (inactive)	12.8 µM (inactive)	29.8 µM (inactive)	38.2 µM (inactive)	–
COc1ccccc1NC(=O)C1=C(C)NC(C)=C(C(=O)Nc2ccccc2OC)C1c1ccccc1F	46.2 µM (inactive)	41.6 µM (inactive)	30.5 µM (inactive)	67.9 µM (inactive)	> 100 µM (inactive)	> 100 µM (inactive)	> 100 µM (inactive)	> 100 µM (inactive)	> 100 µM (inactive)	> 100 µM (inactive)	> 100 µM (inactive)	51.6 µM (inactive)	> 100 µM (inactive)	91.4 µM (inactive)	> 100 µM (inactive)	> 100 µM (inactive)	90.8 µM (inactive)	62.1 µM (inactive)	> 100 µM (inactive)	–
CC(=O)NNc1nc(C)c(C(=O)NNC(=O)C(=O)Nc2ccc(C)c(C)c2)s1	70.8 µM (inactive)	> 100 µM (inactive)	> 100 µM (inactive)	95.3 µM (inactive)	> 100 µM (inactive)	> 100 µM (inactive)	> 100 µM (inactive)	> 100 µM (inactive)	> 100 µM (inactive)	> 100 µM (inactive)	16.7 µM (inactive)	> 100 µM (inactive)	78.5 µM (inactive)	> 100 µM (inactive)	> 100 µM (inactive)	> 100 µM (inactive)	96.4 µM (inactive)	50.9 µM (inactive)	> 100 µM (inactive)	–
COC(=O)Nc1nc2cc(S(=O)(=O)NC(CC(C)C)C(=O)OC)ccc2[nH]1 (stereo unspecified)	2.69 µM (inactive)	0.7 µM (active)	4.48 µM (inactive)	4.17 µM (inactive)	6.47 µM (inactive)	2.45 µM (inactive)	3.87 µM (inactive)	3.25 µM (inactive)	3.22 µM (inactive)	–	3.63 µM (inactive)	11.1 µM (inactive)	1.83 µM (inactive)	2.81 µM (inactive)	–	3.25 µM (inactive)	4.12 µM (inactive)	3.28 µM (inactive)	3.48 µM (inactive)	6.32 µM (inactive)
CCn1c2ccccc2c2cc(/N=N\c3ccc(C#N)cc3)ccc21	32.1 µM (inactive)	50.7 µM (inactive)	32.8 µM (inactive)	64.7 µM (inactive)	32.1 µM (inactive)	19.4 µM (inactive)	31.6 µM (inactive)	23.5 µM (inactive)	74.5 µM (inactive)	–	23.7 µM (inactive)	> 100 µM (inactive)	32.1 µM (inactive)	26.5 µM (inactive)	58.9 µM (inactive)	> 100 µM (inactive)	29.8 µM (inactive)	–	28 µM (inactive)	17 µM (inactive)
Cc1nc(OCc2ccccc2)c2ncn(CCO)c2n1	> 100 µM (inactive)	> 100 µM (inactive)	> 100 µM (inactive)	> 100 µM (inactive)	> 100 µM (inactive)	> 100 µM (inactive)	> 100 µM (inactive)	> 100 µM (inactive)	> 100 µM (inactive)	–	> 100 µM (inactive)	> 100 µM (inactive)	> 100 µM (inactive)	> 100 µM (inactive)	> 100 µM (inactive)	> 100 µM (inactive)	> 100 µM (inactive)	> 100 µM (inactive)	–	> 100 µM (inactive)
O=C1/C(=C/c2ccc(Cl)cc2)NC(=S)N1CN1CCOCC1	–	> 100 µM (inactive)	–	–	> 100 µM (inactive)	> 100 µM (inactive)	> 100 µM (inactive)	> 100 µM (inactive)	> 100 µM (inactive)	–	> 100 µM (inactive)	> 100 µM (inactive)	> 100 µM (inactive)	> 100 µM (inactive)	> 100 µM (inactive)	> 100 µM (inactive)	> 100 µM (inactive)	> 100 µM (inactive)	> 100 µM (inactive)	> 100 µM (inactive)
